Several values for one entry are separate records, joined by “and”; a condition that tells them apart may be missing. Equal entries are not always repeated.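 Step 1: Grow cells in 96-well plates. Step 2: Expose to compound for 48 hours at 5 concentrations. Step 3: Interpolate endpoints linearly; if unreached, use highest concentration. GI50 is the concentration that inhibits growth by half. TGI: concentration producing complete growth inhibition.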
Columns and labels:
Assay in all cases: inhibition of tumour cell growth, NCI panel, 48 h
[1] = tested on: 786-0 renal
[2] = tested on: SF-295 CNS
[3] = tested on: U251 CNS
[4] = tested on: HCT-116 colon
[5] = tested on: LOX IMVI melanoma
[6] = tested on: UACC-62 melanoma
[7] = tested on: HOP-92 NSCLC
[8] = tested on: HL-60(TB) leukemia

SMILES: O=C1CSc2cc([N+](=O)[O-])ccc2N1
- TGI [1]: > 100 µM
- TGI [2]: > 100 µM
- TGI [3]: > 100 µM
- TGI [4]: > 100 µM
- TGI [5]: > 100 µM
- TGI [6]: > 100 µM

SMILES: CCN(CC)CC(=N)N(CC)c1ccccc1
- TGI [1]: > 100 µM
- TGI [2]: > 100 µM
- TGI [3]: > 100 µM
- TGI [4]: > 100 µM
- TGI [7]: > 100 µM
- TGI [5]: > 100 µM
- TGI [8]: > 100 µM
- TGI [6]: > 100 µM

SMILES: N.N.O=P([O-])([O-])C1(P(=O)([O-])[O-])CCCCCN1.[Pt+2]
- GI50 [1]: > 100 µM
- TGI [1]: > 100 µM
- GI50 [2]: > 100 µM
- TGI [2]: > 100 µM
- GI50 [3]: 43.5 µM
- TGI [3]: > 100 µM
- GI50 [4]: > 100 µM
- TGI [4]: > 100 µM
- GI50 [7]: > 100 µM
- TGI [7]: > 100 µM
- GI50 [5]: > 100 µM
- TGI [5]: > 100 µM
- GI50 [8]: > 100 µM
- TGI [8]: > 100 µM
- GI50 [6]: > 100 µM
- TGI [6]: > 100 µM

SMILES: Cn1c(=O)c2/c(n(C)c1=O)=N\C=c1\c(=O)n(C)c(=O)n(C)\c1=N\C=2
- TGI [1]: > 100 µM
- TGI [2]: > 100 µM
- TGI [3]: > 100 µM
- TGI [4]: > 100 µM
- TGI [7]: > 100 µM
- TGI [8]: > 100 µM
- TGI [6]: > 100 µM

SMILES: Cc1ccc(C(=O)CC2=Nc3nnc(CCCCCCCc4nnc5n4C(=O)C(CC(=O)c4ccc(C)cc4)=N5)n3C2=O)cc1
- TGI [1]: > 100 µM
- TGI [2]: > 100 µM
- TGI [3]: > 100 µM
- TGI [4]: > 100 µM
- TGI [5]: > 100 µM
- TGI [8]: > 100 µM
- TGI [6]: > 100 µM

SMILES: O=C(/C=C\c1cccc2ccccc12)c1cccc2ccccc12
- TGI [1]: 17.4 µM
- TGI [2]: 30.2 µM
- GI50 [3]: 12 µM
- TGI [3]: 24.4 µM
- GI50 [4]: 3.36 µM
- TGI [4]: 13.4 µM
- GI50 [5]: 4.42 µM
- TGI [5]: 18 µM
- GI50 [8]: 2.9 µM
- TGI [8]: 9.29 µM and 25.6 µM
- TGI [6]: 27.8 µM

SMILES: CC(=O)[CH-]C(=O)c1ccccc1.CC(=O)[CH-]C(=O)c1ccccc1.CC[O-].O=C1c2ccccc2C(=O)c2c1ccc(O)c2[O-].[Ti+4]
- TGI [1]: > 100 µM
- TGI [2]: > 100 µM
- TGI [3]: > 100 µM
- TGI [4]: > 100 µM
- TGI [7]: > 100 µM
- TGI [5]: > 100 µM
- GI50 [8]: 19.6 µM
- TGI [8]: 56.6 µM
- TGI [6]: > 100 µM

SMILES: O=NN(CCCl)C(=O)NC1CCC(CC2CCC(NC(=O)N(CCCl)N=O)CC2)CC1 (configuration not stated)
- TGI [1]: 69.9 µM
- TGI [2]: > 79.2 µM
- TGI [3]: 46.2 µM
- TGI [4]: > 100 µM
- TGI [7]: > 76.6 µM
- TGI [5]: 26.4 µM
- TGI [8]: > 100 µM

SMILES: O=S1Nc2c(Cl)cc(Cl)c(Cl)c2S1 (configuration not stated)
- TGI [1]: > 100 µM
- TGI [2]: > 100 µM
- TGI [3]: > 100 µM
- TGI [4]: > 100 µM
- TGI [7]: > 100 µM
- TGI [5]: > 100 µM
- TGI [8]: > 100 µM
- TGI [6]: > 100 µM

SMILES: OCCN1CCN(CC/C=C2/c3ccccc3Sc3ccc(Cl)cc32)CC1
- GI50 [1]: 13.2 µM
- TGI [1]: 26.7 µM
- TGI [2]: 32.6 µM
- TGI [3]: 25.6 µM
- TGI [4]: 21.7 µM
- TGI [7]: 20.9 µM
- TGI [5]: 21.8 µM
- TGI [8]: 16 µM
- TGI [6]: 6.78 µM

SMILES: Cc1cccc2c(O)cc(=O)oc12
- TGI [1]: > 100 µM
- TGI [2]: > 100 µM
- TGI [3]: > 100 µM
- TGI [4]: > 100 µM
- TGI [5]: > 100 µM
- TGI [8]: > 100 µM
- TGI [6]: > 100 µM

SMILES: CC(=O)[CH-]C(C)=O.CC(=O)[CH-]C(C)=O.CC[O-].CC[O-].[Ti+4]
- GI50 [1]: > 100 µM
- TGI [1]: > 100 µM
- GI50 [2]: > 100 µM
- TGI [2]: > 100 µM
- GI50 [3]: > 100 µM
- TGI [3]: > 100 µM
- GI50 [7]: > 100 µM
- TGI [7]: > 100 µM
- GI50 [5]: > 100 µM
- TGI [5]: > 100 µM
- GI50 [8]: > 100 µM
- TGI [8]: > 100 µM
- GI50 [6]: > 100 µM
- TGI [6]: > 100 µM

SMILES: CN(C)CC/C(=N\Nc1ccc(Cl)cc1Cl)c1ccccc1
- TGI [1]: 27.5 µM
- TGI [2]: 32.9 µM
- TGI [3]: 24.8 µM
- TGI [4]: 27.9 µM
- TGI [5]: 28 µM
- TGI [8]: 21.6 µM
- TGI [6]: 27.7 µM

SMILES: C/C=N\N1C(=O)c2ccccc2C1=O
- TGI [1]: > 100 µM
- TGI [2]: > 100 µM
- TGI [4]: > 100 µM
- TGI [7]: > 100 µM
- TGI [5]: > 100 µM
- TGI [8]: > 100 µM
- TGI [6]: > 100 µM

SMILES: CCN(CC)CCNC(=O)c1cccc2nc3ccccc3nc12
- TGI [1]: > 100 µM
- TGI [2]: > 38.1 µM
- TGI [3]: > 79.6 µM
- TGI [4]: 45.6 µM
- TGI [7]: > 73.4 µM
- TGI [5]: 29.5 µM
- TGI [6]: 45.9 µM

SMILES: CN1C/C(=C\C=C\c2ccccc2)C(=O)/C(=C/C=C/c2ccccc2)C1
- TGI [1]: > 100 µM
- TGI [2]: > 100 µM
- TGI [3]: > 100 µM
- TGI [4]: > 100 µM
- TGI [5]: > 100 µM
- TGI [6]: > 100 µM

SMILES: O=C1/C(=C/c2ccc(Br)cc2)CCC/C1=C\c1ccc(Br)cc1
- TGI [1]: 33.8 µM
- TGI [3]: 20.5 µM
- TGI [4]: 3.1 µM
- TGI [8]: 13.5 µM
- TGI [6]: 39.9 µM

SMILES: CN(C)C(=O)Oc1c(-c2ccccc2)c(=O)n2c3ccccc3n3c(=O)n(C)c(=O)c1c23
- TGI [1]: > 100 µM
- TGI [2]: > 100 µM
- TGI [3]: > 100 µM
- TGI [4]: > 100 µM
- TGI [7]: > 100 µM
- TGI [5]: > 100 µM
- TGI [6]: > 100 µM

SMILES: O=C(CCC(=O)C1CCC/C1=N/O)Nc1ccc(Cl)cc1 (configuration not stated)
- TGI [1]: > 100 µM
- TGI [2]: > 100 µM
- TGI [3]: > 100 µM
- TGI [4]: > 100 µM
- TGI [7]: > 100 µM
- TGI [8]: > 100 µM
- TGI [6]: > 100 µM

SMILES: O=C1c2ccccc2C(=O)c2[nH]c(Cc3ccc(F)cc3)nc21
- TGI [1]: 43.8 µM
- TGI [2]: 31.2 µM
- TGI [3]: 47 µM
- TGI [4]: 42.3 µM
- TGI [7]: 74.6 µM
- TGI [8]: 55.2 µM
- TGI [6]: 35.5 µM
